Assay results from publication PMC11345828 (Journal of Medicinal Chemistry, 2024).
Several values for one entry are separate records, joined by “and”; a condition that tells them apart may be missing. Equal values may be shown once. Read-outs that look alike come from different tables or passages of the source. Marks after values point to notes of the source that are not given here.

Key:
[1] = test system: NCI-H929 cell line; test: cells; settings: Homo sapiens
Procedure: (§1) NCI-H1048 were cultured in custom medium prepared by PanBioTech containing DMEM/F12 + 5% fetal calf serum, 0.005 mg/mL insulin, 0.01 mg/mL transferrin, 30 nM sodium selenite, 10 nM hydrocortisone, 10 nM β-estradiol and […] 2 mM L-glutamine.
(§2) Suspension cells were plated immediately before compound addition. Adherent cell lines were incubated overnight at 37 °C in a tissue culture incubator prior to compound addition. Compounds were added in triplicates using an HP D300e Digital Dispenser (Hewlett-Packard) or manually at the concentrations indicated and total volumes were normalized using dimethyl sulfoxide (DMSO) backfill, with final DMSO concentration of 0.5%. Control wells were treated with DMSO only.

[2] = test system: K562 cell line; test: cells; settings: Homo sapiens, K562, read-out: K562 GI50
Procedure: as §1, §2

[3] = target: Mcl-1 (Homo sapiens, UniProt Q07820); assay type: binding; settings: read-out: TR-FRET Ki
Chain of Mcl-1 (Q07820 whole entry): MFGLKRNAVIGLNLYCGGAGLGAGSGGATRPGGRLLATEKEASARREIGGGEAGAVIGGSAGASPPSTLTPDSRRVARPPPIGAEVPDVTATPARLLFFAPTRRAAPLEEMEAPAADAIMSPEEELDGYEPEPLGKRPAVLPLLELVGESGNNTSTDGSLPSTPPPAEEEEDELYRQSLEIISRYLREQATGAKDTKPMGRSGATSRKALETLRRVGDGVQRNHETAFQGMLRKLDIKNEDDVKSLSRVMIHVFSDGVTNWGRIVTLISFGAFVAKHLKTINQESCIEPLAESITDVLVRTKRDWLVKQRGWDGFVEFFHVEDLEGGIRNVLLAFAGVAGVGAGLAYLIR
Source text: Mixtures containing vehicle without compound served as a negative control, while mixtures containing no protein served as a positive control.

[4] = Mouse IV PK; settings: for AUC/Dose / CL / improvement in the mouse IV clearance from (M)-18: mouse IV; for AUC/Dose: dose normalized; for clearance: mouse, plasma, iv; for improvement in the mouse IV clearance from (M)-18: relative to (M)-18
Procedure: (§3) For PK analysis, mice and dogs were administered intravenously with compound formulated either in 10% ethanol and 10% Cremophor EL for mice or in 50% ethanol and 50% PEG500 for dogs. Plasma samples were obtained at predefined time points and compound concentrations in plasma were measured by quantitative HPLC-MS/MS using an internal standard. Calibration and quality control samples were prepared using blank plasma from untreated animals. Samples were precipitated with acetonitrile and injected into a HPLC system (Agilent 1200). […] The HPLC was interfaced by ESI operated in positive ionization mode to a triple quadrupole mass spectrometer (6500+ Triple Quad System, SCIEX) operated in multiple reaction monitoring mode. Chromatograms were analyzed with Analyst (SCIEX) and pharmacokinetic parameters were calculated by noncompartmental analysis using proprietary software.

[5] = Dog IV PK
Procedure: as §3

[6] = NCI-H929, read-out: NCI-H929 GI50

Row | SMILES | GI50 [1, 6] | GI50 [2] | clearance ([4]; 25 mg/kg) | CL ([4]; dosed at 25 mg/kg) | further results
1 | COCc1cc(N2C[C@@H](C)n3c(c(CCCOc4cc(C)c(Cl)c(C)c4)c4ccc(Cl)c(-c5c(C)nn(C)c5C)c43)C2=O)c2c(c1)cc(C(=O)O)n2C [Compound 14, (R)-7-(7-Chloro-10-(3-(4-chloro-3,5-dimethylphenoxy)propyl)-4-methyl-1-oxo-6-(1,3,5-trimethyl-1H-pyrazol-4-yl)-3,4-dihydropyrazino[1,2-a]indol-2(1H)-yl)-5-(methoxymethyl)-1-methyl-1H-indole-2-carboxylic Acid] | 122 ± 16 nM | > 12500 nM |  |  | GI50 ([1]; NCI-H929, read-out: H929 GI50): 112 nM; Ki [3]: 0.2 ± 0.065 nM
2 | Cc1cc(OCCCc2c3n(c4c(-c5c(C)nn(C)c5C)c(Cl)ccc24)[C@H](C)CN(c2cccc4cc(C(=O)O)n(C)c24)C3=O)cc(C)c1Cl [Compound 10, (R)-7-(7-Chloro-10-(3-(4-chloro-3,5-dimethylphenoxy)propyl)-4-methyl-1-oxo-6-(1,3,5-trimethyl-1H-pyrazol-4-yl)-3,4-dihydropyrazino[1,2-a]indol-2(1H)-yl)-1-methyl-1H-indole-2-carboxylic Acid] | 187 ± 78 nM | > 12500 nM |  |  | 
3 | COc1cc(N2C[C@@H](C)n3c(c(CCCOc4cc(C)c(Cl)c(C)c4)c4ccc(Cl)c(-c5c(C)nn(C)c5C)c43)C2=O)c2c(c1)cc(C(=O)O)n2C [Compound 12, (R)-7-(7-Chloro-10-(3-(4-chloro-3,5-dimethylphenoxy)propyl)-4-methyl-1-oxo-6-(1,3,5-trimethyl-1H-pyrazol-4-yl)-3,4-dihydropyrazino[1,2-a]indol-2(1H)-yl)-5-methoxy-1-methyl-1H-indole-2-carboxylic Acid] | 211 ± 22 nM | > 12500 nM |  |  | Ki [3]: 0.185 ± 0.027 nM
4 | COc1c(O[C@H]2CCOC2)cc(N2C[C@@H](C)n3c(c(CCCOc4cc(C)c(Cl)c(C)c4)c4ccc(Cl)c(-c5c(C)nc(C)nc5C)c43)C2=O)c2c1cc(C(=O)O)n2C [Compound 29, 7-((R)-7-Chloro-10-(3-(4-chloro-3,5-dimethylphenoxy)propyl)-4-methyl-1-oxo-6-(2,4,6-trimethylpyrimidin-5-yl)-3,4-dihydropyrazino[1,2-a]indol-2(1H)-yl)-4-methoxy-1-methyl-5-(((S)-tetrahydrofuran-3-yl)oxy)-1H-indole-2-carboxylic Acid] |  |  | 19 mL/min/kg |  | AUC/Dose ([4]; dosed at 5 mg/kg): 1858^e nM*h/mpk; clearance ([4]; 5 mg/kg): 19 mL/min/kg; AUC/Dose ([5]; dosed at 0.9 mg/kg): 1808 nM*h/mpk; CL ([5]; dosed at 0.9 mg/kg): 12 mL/min/kg; CL (% hep blood flow) ([5]; dosed at 0.9 mg/kg): 38 % hep blood flow
5 | COc1c(OC[C@@H]2CCCO2)cc(N2C[C@@H](C)n3c(c(CCCOc4cc(C)c(Cl)c(C)c4)c4ccc(Cl)c(-c5c(C)nc(C)nc5C)c43)C2=O)c2c1cc(C(=O)O)n2C [Compound 27, 7-((R)-7-Chloro-10-(3-(4-chloro-3,5-dimethylphenoxy)propyl)-6-(2,4,6-trimethylpyrimidin-5-yl)-4-methyl-1-oxo-3,4-dihydropyrazino[1,2-a]indol-2(1H)-yl)-4-methoxy-1-methyl-5-(((S)-tetrahydrofuran-2-yl)methoxy)-1H-indole-2-carboxylic Acid] |  |  | 8.9 mL/min/kg |  | AUC/Dose ([4]; dosed at 20 mg/kg): 2190^d nM*h/mpk; clearance ([4]; 20 mg/kg): 8.9 mL/min/kg; AUC/Dose ([5]; dosed at 0.9 mg/kg): 2100 nM*h/mpk; CL ([5]; dosed at 0.9 mg/kg): 8.9 mL/min/kg; CL (% hep blood flow) ([5]; dosed at 0.9 mg/kg): 29 % hep blood flow
6 | COc1cc(N2C[C@@H](C)n3c(c(CCCOc4cc(C)c(Cl)c(C)c4)c4ccc(Cl)c(-c5c(C)ncnc5C)c43)C2=O)c2c(cc(C(=O)O)n2C)c1OC [Compound 19, (R)-7-(7-Chloro-10-(3-(4-chloro-3,5-dimethylphenoxy)propyl)-6-(4,6-dimethylpyrimidin-5-yl)-4-methyl-1-oxo-3,4-dihydropyrazino[1,2-a]indol-2(1H)-yl)-4,5-dimethoxy-1-methyl-1H-indole-2-carboxylic Acid] | 32 ± 14 nM | 7000 nM | 43 mL/min/kg | 43 mL/min/kg | AUC/Dose ([4]; dosed at 25 mg/kg, 25 mg/kg): 499 nM*h/mpk and 499^c nM*h/mpk; improvement in the mouse IV clearance from (M)-18 [4]: 2 fold
7 | COCCOc1cc(N2C[C@@H](C)n3c(c(CCCOc4cc(C)c(Cl)c(C)c4)c4ccc(Cl)c(-c5c(C)ncnc5C)c43)C2=O)c2c(cc(C(=O)O)n2C)c1OC [Compound 21, (R)-7-(7-Chloro-10-(3-(4-chloro-3,5-dimethylphenoxy)propyl)-6-(4,6-dimethylpyrimidin-5-yl)-4-methyl-1-oxo-3,4-dihydropyrazino[1,2-a]indol-2(1H)-yl)-4-methoxy-5-(2-methoxyethoxy)-1-methyl-1H-indole-2-carboxylic Acid] | 30 ± 13 nM | > 12000 nM | 58 mL/min/kg | 58 mL/min/kg | AUC/Dose ([4]; dosed at 25 mg/kg): 290^c nM*h/mpk
8 | COc1ccc(N2C[C@@H](C)n3c(c(CCCOc4cc(C)c(Cl)c(C)c4)c4ccc(Cl)c(-c5c(C)nn(C)c5C)c43)C2=O)c2c1cc(C(=O)O)n2C [Compound 13, (R)-7-(7-Chloro-10-(3-(4-chloro-3,5-dimethylphenoxy)propyl)-4-methyl-1-oxo-6-(1,3,5-trimethyl-1H-pyrazol-4-yl)-3,4-dihydropyrazino[1,2-a]indol-2(1H)-yl)-4-methoxy-1-methyl-1H-indole-2-carboxylic Acid] | 110 ± 38 nM | > 7100 nM |  |  | Ki [3]: 0.091 ± 0.003 nM
9 | COCCOc1cc(N2C[C@@H](C)n3c(c(CCCOc4cc(C)c(Cl)c(C)c4)c4ccc(Cl)c(-c5c(C)nc(C)nc5C)c43)C2=O)c2c(cc(C(=O)O)n2C)c1OC [Compound 25, (R)-7-(7-Chloro-10-(3-(4-chloro-3,5-dimethylphenoxy)propyl)-4-methyl-1-oxo-6-(2,4,6-trimethylpyrimidin-5-yl)-3,4-dihydropyrazino[1,2-a]indol-2(1H)-yl)-4-methoxy-5-(2-methoxyethoxy)-1-methyl-1H-indole-2-carboxylic Acid] | 22 ± 10 nM | > 12000 nM | 51 mL/min/kg | 51 mL/min/kg | AUC/Dose ([4]; dosed at 25 mg/kg): 334^c nM*h/mpk; AUC/Dose ([5]; dosed at 0.25 mg/kg): 1324 nM*h/mpk; CL ([5]; dosed at 0.25 mg/kg): 16 mL/min/kg; CL (% hep blood flow) ([5]; dosed at 0.25 mg/kg): 50 % hep blood flow
10 | COc1cc(N2C[C@@H](C)n3c(c(CCCOc4cc(C)c(Cl)c(C)c4)c4ccc(Cl)c(-c5c(C)nc(C)nc5C)c43)C2=O)c2c(cc(C(=O)O)n2C)c1OC [Compound 20, (R)-7-(7-Chloro-10-(3-(4-chloro-3,5-dimethylphenoxy)propyl)-4-methyl-1-oxo-6-(2,4,6-trimethylpyrimidin-5-yl)-3,4-dihydropyrazino[1,2-a]indol-2(1H)-yl)-4,5-dimethoxy-1-methyl-1H-indole-2-carboxylic Acid] | 33 ± 14 nM | 6800 ± 3300 nM | 45 mL/min/kg | 45 mL/min/kg | AUC/Dose ([4]; dosed at 25 mg/kg, 25 mg/kg): 385 nM*h/mpk and 385^c nM*h/mpk; improvement in the mouse IV clearance from (M)-18 [4]: 2 fold
11 | COc1cc(N2C[C@@H](C)n3c(c(CCCOc4cc(C)c(Cl)c(C)c4)c4ccc(Cl)c(-c5c(C)nn(C)c5C)c43)C2=O)c2c(cc(C(=O)O)n2C)c1OC [Compound 18, (M,R)-7-(7-Chloro-10-(3-(4-chloro-3,5-dimethylphenoxy)propyl)-4-methyl-1-oxo-6-(1,3,5-trimethyl-1H-pyrazol-4-yl)-3,4-dihydropyrazino[1,2-a]indol-2(1H)-yl)-4,5-dimethoxy-1-methyl-1H-indole-2-carboxylic Acid] |  |  | 70 mL/min/kg |  | AUC/Dose ([4]; dosed at 25 mg/kg): 252 nM*h/mpk
